US10894036B2, “Use of marizomib for the treatment of central nervous system (CNS) cancers” (Celgene International II Sàrl, priority 2016, dated 2021)
“Also recorded” adds a separate entry of the source. Where two headings read alike, the source gives them in different places.

Columns and labels:
recurrent glioma = settings: cited from earlier work; for 6 mo OS / 6 mo PFS / 9 mo OS / 9 mo PFS: BEV monotherapy
proteasome = assay: Proteasome activity in monkey brain; format: in vivo; settings: monkey (primate)
[1] = BELOB Trial, BEV monotherapy (Taal et al., 2014)
[2] = BELOB trial BEV monotherapy arm (Taal et al., 2014)
[3] = Heiland (Freiburg, Germany), All Pts
[4] = Heiland (Freiburg, Germany), Methylated
[5] = Heiland (Freiburg, Germany), Unmethylated MGMT promoter
[6] = Taal (BELOB), Unmethylated MGMT promoter
[7] = Wick (EORTC 26101 P2), Methylated
[8] = Wick (EORTC 26101 P2), Unmethylated MGMT promoter
[9] = MRZ 0.7 mg/m^2, C1D8 (17 May 2016)
[10] = MRZ 0.8 mg/m^2, C1D8 (17 May 2016)
[11] = MRZ 0.8 mg/m^2, C1D8 (Table 43)

In the case of bevacizumab [reference compound], the “6 Months PFS, all patients” value (recurrent glioma; [1]) is listed as 16%, the “6 Months PFS, uMGMT Promoter” value (recurrent glioma; [1]) is listed as 8% and the “6 mo PFS, All” value (recurrent glioma; [2]) is listed as 16%. The “6 mo PFS, uMGMT Promoter” value (recurrent glioma; [2]) was 8%, the “6 mo OS” value (recurrent glioma; Field (CABARET), All Pts) was 61% and the “6 mo PFS” value (recurrent glioma; Field (CABARET), All Pts) was 18%. The “9 mo OS” value (recurrent glioma; Field (CABARET), All Pts) was 39%, the “9 mo PFS” value (recurrent glioma; Field (CABARET), All Pts) was 6% and the “6 mo Overall Survival, All Pts” value (recurrent glioma; Field (CABARET)) was 61%. For the same molecule, the “6 mo Progression Free Survival, All Pts” value (recurrent glioma; Field (CABARET)) was 18%, the “9 mo Overall Survival, All Pts” value (recurrent glioma; Field (CABARET)) was 39% and the “9 mo Progression Free Survival, All Pts” value (recurrent glioma; Field (CABARET)) was 6%. The “12 Mo. Overall Survival, All Pts” value (recurrent glioma; Field (CABARET)) was 24%, the “6 mo OS” value (recurrent glioma; [3]) was 18% and the “9 mo OS” value (recurrent glioma; [3]) was 30%. For the same molecule, the “9 mo PFS” value (recurrent glioma; [3]) was 0%, the “6 mo OS” value (recurrent glioma; [4]) was 58% and the “6 mo PFS” value (recurrent glioma; [4]) was 38%. For the same molecule, the “9 mo OS” value (recurrent glioma; [4]) was 40%, the “9 mo PFS” value (recurrent glioma; [4]) was 22% and the “6 mo OS” value (recurrent glioma; [5]) was 25%. For the same molecule, the “6 mo PFS” value (recurrent glioma; [5]) was 10%, the “9 mo PFS” value (recurrent glioma; [5]) was 0% and the “6 mo Overall Survival, All Pts” value (recurrent glioma; Heiland (Freiburg, Germany)) was 18%. The “6 mo Overall Survival, Methylated” value (recurrent glioma; Heiland (Freiburg, Germany)) was 58%, the “6 mo Overall Survival, Unmethylated” value (recurrent glioma; Heiland (Freiburg, Germany)) was 25% and the “6 mo Progression Free Survival, Methylated” value (recurrent glioma; Heiland (Freiburg, Germany)) was 38%. For the same molecule, the “6 mo Progression Free Survival, Unmethylated” value (recurrent glioma; Heiland (Freiburg, Germany)) was 10%, the “9 mo Overall Survival, All Pts” value (recurrent glioma; Heiland (Freiburg, Germany)) was 30% and the “9 mo Overall Survival, Methylated” value (recurrent glioma; Heiland (Freiburg, Germany)) was 40%. The “9 mo Progression Free Survival, All Pts” value (recurrent glioma; Heiland (Freiburg, Germany)) was 0%, the “9 mo Progression Free Survival, Methylated” value (recurrent glioma; Heiland (Freiburg, Germany)) was 22% and the “9 mo Progression Free Survival, Unmethylated” value (recurrent glioma; Heiland (Freiburg, Germany)) was 0%. The “12 Mo. Overall Survival, All Pts” value (recurrent glioma; Heiland (Freiburg, Germany)) was 10%, the “12 Mo. Overall Survival, Methylated” value (recurrent glioma; Heiland (Freiburg, Germany)) was 24% and the “12 Mo. Progression Free Survival, All Pts” value (recurrent glioma; Heiland (Freiburg, Germany)) was 0%. For the same molecule, the “12 Mo. Progression Free Survival, Methylated” value (recurrent glioma; Heiland (Freiburg, Germany)) was 10%, the “12 Mo. Progression Free Survival, Unmethylated” value (recurrent glioma; Heiland (Freiburg, Germany)) was 0% and the “6 mo OS” value (recurrent glioma; Taal (BELOB), All Pts) was 62%. The “6 mo PFS” value (recurrent glioma; Taal (BELOB), All Pts) was 16%, the “9 mo OS” value (recurrent glioma; Taal (BELOB), All Pts) was 45% and the “9 mo PFS” value (recurrent glioma; Taal (BELOB), All Pts) was 8%. The “6 mo OS” value (recurrent glioma; Taal (BELOB), Methylated) was 83%, the “6 mo PFS” value (recurrent glioma; Taal (BELOB), Methylated) was 33% and the “9 mo OS” value (recurrent glioma; Taal (BELOB), Methylated) was 67%. For the same molecule, the “9 mo PFS” value (recurrent glioma; Taal (BELOB), Methylated) was 22%, the “6 mo OS” value (recurrent glioma; [6]) was 50% and the “6 mo PFS” value (recurrent glioma; [6]) was 8%. The “9 mo PFS” value (recurrent glioma; [6]) was 0%, the “6 mo Overall Survival, All Pts” value (recurrent glioma; Taal (BELOB)) was 62% and the “6 mo Overall Survival, Methylated” value (recurrent glioma; Taal (BELOB)) was 83%. For the same molecule, the “6 mo Overall Survival, Unmethylated” value (recurrent glioma; Taal (BELOB)) was 50%, the “6 mo Progression Free Survival, All Pts” value (recurrent glioma; Taal (BELOB)) was 16% and the “6 mo Progression Free Survival, Methylated” value (recurrent glioma; Taal (BELOB)) was 33%. For the same molecule, the “6 mo Progression Free Survival, Unmethylated” value (recurrent glioma; Taal (BELOB)) was 8%, the “9 mo Overall Survival, All Pts” value (recurrent glioma; Taal (BELOB)) was 45% and the “9 mo Overall Survival, Methylated” value (recurrent glioma; Taal (BELOB)) was 67%. For the same molecule, the “9 mo Progression Free Survival, Methylated” value (recurrent glioma; Taal (BELOB)) was 22%, the “9 mo Progression Free Survival, Unmethylated” value (recurrent glioma; Taal (BELOB)) was 0% and the “12 Mo. Overall Survival, All Pts” value (recurrent glioma; Taal (BELOB)) was 26%. For the same molecule, the “12 Mo. Overall Survival, Methylated” value (recurrent glioma; Taal (BELOB)) was 56%, the “12 Mo. Overall Survival, Unmethylated” value (recurrent glioma; Taal (BELOB)) was 8% and the “12 Mo. Progression Free Survival, Unmethylated” value (recurrent glioma; Taal (BELOB)) was 0%. For the same molecule, the “6 mo PFS” value (recurrent glioma; Wick (EORTC 26101 P2), All Pts) was 14%, the “9 mo PFS” value (recurrent glioma; Wick (EORTC 26101 P2), All Pts) was 9% and the “6 mo PFS” value (recurrent glioma; [7]) was 25%. The “9 mo PFS” value (recurrent glioma; [7]) was 9%, the “6 mo PFS” value (recurrent glioma; [8]) was 10% and the “9 mo PFS” value (recurrent glioma; [8]) was 10%. For the same molecule, the “6 mo Progression Free Survival, All Pts” value (recurrent glioma; Wick (EORTC 26101 P2)) was 14%, the “6 mo Progression Free Survival, Methylated” value (recurrent glioma; Wick (EORTC 26101 P2)) was 25% and the “6 mo Progression Free Survival, Unmethylated” value (recurrent glioma; Wick (EORTC 26101 P2)) was 10%. The “9 mo Progression Free Survival, All Pts” value (recurrent glioma; Wick (EORTC 26101 P2)) was 9%, the “9 mo Progression Free Survival, Methylated” value (recurrent glioma; Wick (EORTC 26101 P2)) was 9% and the “9 mo Progression Free Survival, Unmethylated” value (recurrent glioma; Wick (EORTC 26101 P2)) was 10%. The “12 Mo. Progression Free Survival, All Pts” value (recurrent glioma; Wick (EORTC 26101 P2)) was 8%, the “12 Mo. Progression Free Survival, Methylated” value (recurrent glioma; Wick (EORTC 26101 P2)) was 9% and the “12 Mo. Progression Free Survival, Unmethylated” value (recurrent glioma; Wick (EORTC 26101 P2)) was 10%. For the same molecule, the “6-month progression-free survival (PFS) rate” value (recurrent glioma; recurrent G4 MG) was about 43% and the “median overall survival (OS)” value (recurrent glioma; recurrent G4 MG) was about 9 months.
With `C[C@@]12OC(=O)[C@]1([C@@H](O)[C@@H]1C=CCCC1)NC(=O)[C@@H]2CCCl` [marizomib] the “proteasome activity in brain” value (proteasome) was “inhibition of proteasome activity; also recorded: inhibits proteasome activity”, the CL (IV infusion) was “high” and the T½ (IV infusion) was “short”. The Vd (IV infusion) was “large”, the CLobs [9] was 162 (1) mL/min/m^2 and the Cmax [9] was 65 ± 31 (3) ng/mL. The Vss obs [9] was 7377 (1) mL/m^2, the CLobs (MRZ 0.7 mg/m^2, C1D8 (Table 43)) was 272 ± 166 (3) L/hr and the CLobs [10] was 3822 ± 1798 (2) mL/min/m^2. For the same molecule, the Vss obs [10] was 12379 ± 8698 (2) mL/m^2, the CLobs [11] was 304 ± 85.0 (3) L/hr and the Vd [11] was 55.0 ± 19.7 (3) L. For the same molecule, the Vss obs (MRZ […]^2, C1D8 (17 May 2016)) was 12971 ± 7600 (3) mL/m^2, the CLobs (marizomib 0.7 mg/m^2 IV, C1D8, blood) was 272 ± 166 (3) L/hr and the CLobs (marizomib 0.8 mg/m^2 IV, C1D8, blood) was 304 ± 85.0 (3) L/hr. The “MRZ pharmacokinetic parameters: effect of co-administration” value (with BEV) was “not affected by co-administration”.
